Like-named read-outs stand apart in the source and are kept apart here. Numbered stars: 1 amine (or outer) side, 2 acyl side, 3 side chain; on linkers, the order of the positions; unused ones are H or OH. Bridge positions count the residues as written; N and C are the ends. Square brackets hold non-standard residues; d marks the D form. Peptide text beside a SMILES is read from it. Adda = CO[C@@H](Cc1ccccc1)[C@@H](C)/C=C(C)/C=C/[C@H](N[*:1])[C@H](C)C(=O)[*:2]; dAsp(3S-Me) = C[C@H](C(=O)[*:3])[C@@H](N[*:1])C(=O)[*:2]; d(γGlu) = O=C(O)[C@@H](CCC(=O)[*:2])N[*:1]; NMeDha = C=C(NC)C(=O)O
How the values were obtained:
[1] = molecular target: T1, protein phosphatase-2A (PP2A) catalytic subunit (Oryctolagus cuniculus, UniProt P67777); assay: Standard phosphorylase a phosphatase assay, inhibition of PP2A catalytic subunit; assay type: biochemical, rabbit; conditions: for inhibition of PP2A: result in words
T1 construct: Homogeneous PP-1 and -2A catalytic subunits were purified from rabbit skeletal muscle; from tissue; host or cells: rabbit skeletal muscle

[2] = molecular target: protein phosphatase-1 (PP1) catalytic subunit; assay: Standard phosphorylase a phosphatase assay, inhibition of PP1 catalytic subunit; assay type: biochemical, rabbit; conditions: for inhibition of PP1: result in words
PP1/PP2A = assay: LC-linked protein phosphatase bioassay, cross-reactivity; assay type: biochemical, rabbit; conditions: result in words
mouse skin = conditions: cited from earlier work
[3] = test system: protein phosphatase-2A (PP2A); conditions: literature, result in words; cited from earlier work
[4] = test system: protein phosphatase-1 (PP1); conditions: literature, result in words; cited from earlier work

T1 sequence (P67777 whole entry): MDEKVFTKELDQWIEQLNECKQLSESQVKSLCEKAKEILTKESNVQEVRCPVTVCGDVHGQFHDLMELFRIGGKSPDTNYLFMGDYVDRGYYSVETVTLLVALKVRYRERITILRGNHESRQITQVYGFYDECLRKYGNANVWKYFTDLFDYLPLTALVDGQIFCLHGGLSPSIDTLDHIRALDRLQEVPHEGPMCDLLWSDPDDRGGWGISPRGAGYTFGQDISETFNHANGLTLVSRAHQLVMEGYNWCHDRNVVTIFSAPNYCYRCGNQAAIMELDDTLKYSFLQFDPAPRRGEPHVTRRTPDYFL

## C=C1C(=O)N[C@H](C)C(=O)N[C@@H](CC(C)C)C(=O)N[C@@H](C(=O)O)[C@H](C)C(=O)N[C@@H](CCCNC(=N)N)C(=O)N[C@@H](/C=C/C(C)=C/[C@H](C)[C@H](Cc2ccccc2)OC)[C@H](C)C(=O)N[C@@H](C(=O)O)CCC(=O)N1C [Microcystin-LR] (R[Adda][d(γGlu)][NMeDha][dA]L[dAsp(3S-Me)]-OH; lactam N-7)
[1]; pH 7, read-out: IC50 for PP2A inhibition
  IC50: 0.1 nM
[2]; pH 7
  IC50: 0.1 nM

## C/C(=C/C=C/[C@@H](C)C(=O)O)[C@H]1CN[C@H](C(=O)O)[C@H]1CC(=O)O [domoic acid]
PP1/PP2A
  cross-reactivity in the LC-linked protein phosphatase bioassay: does not cross-react

## CO[C@@H]1[C@@H](OC)[C@H](C)[C@@](O)(CC(=O)O)O[C@H]1[C@H](C)[C@H]1O[C@@]2(CC[C@@](C)([C@H]3CC[C@@](C)([C@@H]4O[C@@H]([C@H]5O[C@](C)(O)[C@H](C)C[C@@H]5C)C[C@@H]4O[C@@H]4C[C@H](OC)[C@@H](OC)[C@H](C)O4)O3)O2)C[C@H](O)[C@H]1C [maduramycin]
[1]
  inhibition of PP2A: not inhibited
[2]
  inhibition of PP1: not inhibited

## CC[C@@]1([C@@H]2O[C@@H]([C@H]3O[C@@](O)(CO)[C@H](C)C[C@@H]3C)C[C@@H]2C)CC[C@H]([C@]2(C)CC[C@]3(C[C@H](O)[C@@H](C)[C@@H]([C@@H](C)[C@@H](OC)[C@H](C)C(=O)O)O3)O2)O1 [monensin]
[1]
  inhibition of PP2A: not inhibited
[2]
  inhibition of PP1: not inhibited

## CO[C@@H]1C[C@@H](C[C@H]2CC[C@H](C)[C@H]([C@@H](C)C(=O)O)O2)O[C@]2(O[C@](C)([C@H]3CC[C@@](C)([C@@H]4O[C@@H]([C@H]5O[C@@](O)(CO)[C@H](C)C[C@@H]5C)C[C@@H]4C)O3)C[C@H]2C)[C@@H]1C [nigericin]
[1]
  inhibition of PP2A: not inhibited
[2]
  inhibition of PP1: not inhibited

## C=C1[C@@H](O)[C@@H]2O[C@]3(CC[C@H](/C=C/[C@@H](C)[C@@H]4CC(C)=C[C@@]5(O[C@H](C[C@@](C)(O)C(=O)O)CC[C@H]5O)O4)O3)CC[C@H]2O[C@@H]1[C@@H](O)C[C@H](C)[C@H]1O[C@@]2(CCCCO2)CC[C@H]1C [okadaic acid]
Mouse skin; result in words
  tumour promotion: powerful tumour promoters
Mouse skin; two-stage carcinogenesis, mouse skin, versus phorbol esters
  tumour promoting potency compared with phorbol esters: comparable potency
[3]
  inhibitor of protein phosphatase-2A: potent and specific inhibitor
[1]; PP2A diluted to 0.03 mU/ml in the standard assay, read-out: IC50 for okadaic acid with diluted PP2A
  IC50: 0.04 nM
[1]; PP2A relative to PP1, standard assay
  fold stronger inhibition of PP2A than PP1: 90(+10) fold
[2]; standard phosphorylase a phosphatase assay, 1 mU/ml PP1, pH 7.0, 30° C.
  IC50: 19 nM
[4]
  inhibitor of protein phosphatase-1: potent and specific inhibitor

## CC[C@@H](C(=O)[C@@H](C)[C@@H](O)[C@H](C)[C@@H]1O[C@@H]([C@@H](CC)C(=O)O)CC[C@@H]1C)[C@H]1O[C@]2(C=C[C@@H](O)[C@]3(CC[C@@](C)([C@H]4CC[C@](O)(CC)[C@H](C)O4)O3)O2)[C@H](C)C[C@@H]1C [salinomycin]
[1]
  inhibition of PP2A: not inhibited
[2]
  inhibition of PP1: not inhibited

## dinophysistoxin-1
Mouse skin; mouse, in vivo
  tumour promoting potency compared with phorbol esters: comparable potency
  tumour promotion: powerful tumour promoters
[1]; rabbit
  fold stronger inhibition of PP2A than PP1: 90(+10) fold

— patent publication US5180665A, “Method for quantitatively assaying the presence of diarrhetic shellfish poisoning toxins in marine samples” (priority 1990, dated 1993)
